Reference: ChEMBL document CHEMBL5143559, “Discovery of highly potent SARS-CoV-2 Mpro inhibitors based on benzoisothiazolone scaffold” (Bioorg Med Chem Lett, 2022)
Active and inactive are the calls of the source. The rule behind the calls is not given here.

Tests used:
[1] = molecular target: Replicase polyprotein 1ab (Severe acute respiratory syndrome coronavirus 2) (UniProt P0DTD1); test: Inhibition of SARS-CoV-2 main protease using Mca-AVLQSGFRK(Dnp)K as substrate at 40 uM preincubated with enzyme for 10 mins followed by substrate addition and measured every 30 secs for 10 mins by fluorescence based analysis; settings: time 20.0 min
[2] = molecular target: T1, Replicase polyprotein 1ab (Severe acute respiratory syndrome coronavirus 2, UniProt P0DTD1); test: Inhibition of SARS-CoV-2 main protease using Mca-AVLQSGFRK(Dnp)K as substrate preincubated with enzyme for 10 mins followed by substrate addition and measured every 30 secs for 10 mins by fluorescence based analysis
[3] = molecular target: T1, Replicase polyprotein 1ab; test: Inhibition of SARS-CoV-2 RdRp
[4] = molecular target: Replicase polyprotein 1ab (Severe acute respiratory syndrome coronavirus 2) (UniProt P0DTD1); test: Irreversible inhibition of SARS-CoV-2 main protease by fast dilution experiment based analysis

Row | Structure (SMILES) | inhibition [1] [%] | IC50 [2] [nM] | IC50 [3] [nM] | inhibition [4]
1 | O=C(Cn1sc2cc(F)ccc2c1=O)Nc1cccc(C(F)(F)F)c1 | 98.9 | 250 | – | –
2 | O=C(Cn1sc2cc(F)ccc2c1=O)Nc1ccccc1C(F)(F)F | 105 | 335 | – | –
3 | CC(=O)NCn1sc2cc(F)ccc2c1=O | 102 | 253 | – | –
4 | COc1cccc2sn(CC(=O)Nc3ccccc3)c(=O)c12 | 99.6 | 334 | – | –
5 | COc1ccc2sn(CC(=O)Nc3ccccc3)c(=O)c2c1 | 99.7 | 153 | – | –
6 | CCNC(=O)Cn1sc2cc(F)ccc2c1=O | 102 | 380 | – | –
7 | O=C(Cn1sc2cc(C(F)(F)F)ccc2c1=O)Nc1ccccc1 | 100 | 524 | – | –
8 | COc1cc(NC(=O)Cn2sc3cc(F)ccc3c2=O)cc(OC)c1 | 96.7 | 120 | – | –
9 | O=C(Cn1sc2cc(F)ccc2c1=O)NC1CCCCC1 | 97.7 | 160 | 7900 | –
10 | O=C(Cn1sc2cc(F)ccc2c1=O)NC1CCCC1 | 95.5 | 400 | – | –
11 | O=C(O)Cn1sc2cc(F)ccc2c1=O | 98.4 | 1570 | – | –
12 | O=C(Cn1c(=O)c2ccc(F)cc2[s+]1[O-])Nc1ccccc1 (stereo unspecified) | 23.5 | – | – | –
13 | COc1cccc2c(=O)n(CC(=O)Nc3ccccc3)sc12 | -6.8 | – | – | –
14 | O=C(CN1C(=O)c2ccc(F)cc2S1(=O)=O)Nc1ccccc1 | 18.3 | – | – | –
15 | O=C(Cn1oc2cc(F)ccc2c1=O)Nc1ccccc1 | 7 | – | – | –
16 | O=c1c2ccc(F)cc2sn1CCCc1ccccc1 | 102 | 540 | – | –
17 | Nc1cccc2c(=O)n(CC(=O)Nc3ccccc3)sc12 | 58.8 | 11000 | – | –
18 | O=C(Cn1sc2c(F)cccc2c1=O)Nc1ccccc1 | 99.5 | 328 | – | –
19 | O=C(Cn1sc2cc(F)ccc2c1=O)Nc1ccc(Cl)cc1 | 95.7 | 150 | – | –
20 | O=C(Cn1sc2ccc(C(F)(F)F)cc2c1=O)Nc1ccccc1 | 99.7 | 393 | – | –
21 | O=C(Cn1sc2ccccc2c1=O)Nc1ccccc1 | 99.7 | 165 | – | –
22 | COc1cccc(NC(=O)Cn2sc3cc(F)ccc3c2=O)c1 | 101 | 150 | – | –

Row | Structure (SMILES) | inhibition [1] [%] | IC50 [2] [nM] | IC50 [3] [nM] | inhibition [4]
23 | O=C(Nc1ccccc1)n1sc2cc(F)ccc2c1=O | 102 | 680 | 15300 | –
24 | O=C(Cn1sc2cc(F)ccc2c1=O)Nc1ccccc1Cl | 94 | 190 | – | –
25 | O=C(Cn1sc2ccc(F)cc2c1=O)Nc1ccccc1 | 99.7 | 287 | – | –
26 | O=C(Cn1[nH]c2cc(F)ccc2c1=O)Nc1ccccc1 | 26.3 | – | – | –
27 | O=C(Cn1sc2cc(F)ccc2c1=O)NCc1ccccc1 | 104 | 230 | – | –
28 | Nc1cccc2sn(CC(=O)Nc3ccccc3)c(=O)c12 | 99.4 | 1770 | – | –
29 | O=C(Cn1sc2cccc(F)c2c1=O)Nc1ccccc1 | 99.5 | 117 | – | Active
30 | O=C(Cn1sc2cc(F)ccc2c1=O)Nc1cccc(Cl)c1 | 95.5 | 140 | – | –
31 | O=C(Cn1sc2c(C(F)(F)F)cccc2c1=O)Nc1ccccc1 | -7.6 | – | – | –
32 | Nc1ccc2sn(CC(=O)Nc3ccccc3)c(=O)c2c1 | 99.8 | 416 | – | –
33 | O=C(Cn1sc2cc(F)ccc2c1=O)Nc1ccccc1 | 102 | 190 | 6400 | –
34 | CC(C)(C)OC(=O)Cn1sc2cc(F)ccc2c1=O | 104 | 220 | – | –
35 | COc1ccccc1NC(=O)Cn1sc2cc(F)ccc2c1=O | 99.2 | 180 | – | –
36 | O=C(Cn1sc2cc(F)ccc2c1=O)Nc1cc(Cl)cc(Cl)c1 | 108 | 190 | – | –
37 | COc1ccc(NC(=O)Cn2sc3cc(F)ccc3c2=O)cc1 | 99.3 | 300 | – | –
38 | O=C(Cn1sc2cc(F)ccc2c1=O)Nc1ccc(C(F)(F)F)cc1 | 100 | 210 | – | –
39 | O=C(Cn1sc2cccc(C(F)(F)F)c2c1=O)Nc1ccccc1 | 99.7 | 224 | – | –
40 | Nc1ccc2c(=O)n(CC(=O)Nc3ccccc3)sc2c1 | 99.7 | 443 | – | –
41 | O=C(Cn1sc2cc(F)ccc2c1=O)NCCc1ccccc1 | 100 | 388 | – | –
42 | COc1ccc2c(=O)n(CC(=O)Nc3ccccc3)sc2c1 | 99.7 | 287 | – | –
43 | O=c1[nH]sc2cc(F)ccc12 | 106 | 2290 | – | –
44 | CC(C)(C)c1ccc(NC(=O)Cn2sc3cc(F)ccc3c2=O)cc1 | 99.9 | 310 | – | –
